Publication PMC7794297

Experiments:
[1] = Spermidine-templated DCL of building blocks 1-4;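 further: Spermidine-templated dynamic combinatorial library, normalized change of RPA compared between Secox-free and Secox-containing libraries, DCC runs done in triplicate, values given as mean ± SD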
glucose oxidase (GOx) [2] = biological target: T1, glucose oxidase (GOx) (Aspergillus niger, UniProt P13006); test: Glucose oxidase-directed DCL of building blocks 1-4; set-up: purchased Sigma Aldrich; unit not given here; settings: blank vs GOx template DCL; GOx 57 μM, Secox 5% mol, 24 h
T1 sequence (P13006 17-605): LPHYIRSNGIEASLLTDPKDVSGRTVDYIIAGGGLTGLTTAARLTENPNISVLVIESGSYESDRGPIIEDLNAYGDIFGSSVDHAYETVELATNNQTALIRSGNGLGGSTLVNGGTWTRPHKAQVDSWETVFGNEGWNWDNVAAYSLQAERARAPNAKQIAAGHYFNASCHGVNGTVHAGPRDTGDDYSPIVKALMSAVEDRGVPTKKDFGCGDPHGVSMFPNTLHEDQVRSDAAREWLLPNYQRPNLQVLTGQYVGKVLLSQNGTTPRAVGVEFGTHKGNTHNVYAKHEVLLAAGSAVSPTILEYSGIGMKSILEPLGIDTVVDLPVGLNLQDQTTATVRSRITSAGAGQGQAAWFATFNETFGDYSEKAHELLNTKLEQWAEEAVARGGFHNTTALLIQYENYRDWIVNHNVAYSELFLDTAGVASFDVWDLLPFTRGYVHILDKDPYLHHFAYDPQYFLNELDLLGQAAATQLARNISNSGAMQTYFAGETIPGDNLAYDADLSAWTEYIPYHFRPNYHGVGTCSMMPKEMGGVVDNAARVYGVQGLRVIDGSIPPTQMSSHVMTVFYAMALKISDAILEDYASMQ
Experimental: The equilibration of the DCL was completed after 24 h (Fig. 9) and the oligomers were identified by HPLC-MS (Supplementary Figs. 4–20). The precise composition of the DCL (with and without GOx), was assessed by measuring the relative peak area (RPA). The normalized change of RPA was used to quantify the protein influence in the final DCL showing the amplification of the dimer of compound 4, that is (4)2 (Fig. 9b). Control experiments were set up to verify that the amplification of the dimer was not due to unspecific binding. Firstly the GOx was replaced by the bovine serum albumin (BSA). A stability study of BSA under the DCL conditions was performed using a fluorescence technique confirming the BSA stability in the DCL experiment (Supplementary Fig. 48)[50].
The DCL was stabilized for 24 h at 6 °C. Then, GOx was removed by ultracentrifugation through an Amicon ultra-filter (100 KDa). HPLC analysis was performed.

glucose oxidase (GOx) [3] = biological target: T1, glucose oxidase (GOx); test: Tryptophan fluorescence emission binding experiments with GOx; set-up: purchased Sigma Aldrich; settings: for Emmsion average / Normalized Fluorescence: Supplementary Figure 52 b
[4] = Spermine-templated DCL of building blocks 1-4; settings: spermine DCL of 1-4
Experimental: Building blocks 2 and 3 equipped with carboxylate moieties to establish interactions with the protonated amine groups of the spermine were allowed to equilibrate at pH 7.8 and 6 °C (Fig. 8a). As expected in our control experiment, the major component in the absence of spermine was the linear tetramer (2)2(3)2. After the addition of spermine, the linear tetramer “decomposed” in order to form mainly the cyclic tetramer of (2)4, and the (3)2 dimer (Fig. 8a). As it was reported, several studies determined that the spermine was threaded through the macrocycle fixing the configuration to a highly symmetric stereoisomer of (2)4[36]. […] The precise composition of the DCL (with and without spermine), was assessed by measuring the relative peak area (RPA). Indeed, the normalized change of RPA was used to quantify the spermine influence in the outcome (Supplementary Fig. 42)[46]. The same template (spermine) was tested in our reference DCL of four building blocks (1–4) in the absence and presence of Secox (Fig. 8b). […] Additionally, two different templates were tested to confirm the absence of conflict between selenocystine and the templating effect. Spermidine and NADPH were introduced in our 4 building blocks DCL (1–4) in the absence and presence of Secox, leading to the amplification of different species and getting the same results as the non-catalyzed DCLs (Supplementary Figs. 44, 45, Supplementary Tables 7–10, and Supplementary Methods).
The mixture was stabilized in 96 h. […] The mixture was stabilized after 24 h. […] It was stabilized in 24 h. […] DCL was equilibrated in 96 h. DCLs were performed without stirring at 6 °C and analyzed by HPLC-MS.

glucose oxidase (GOx) [5] = biological target: T1, glucose oxidase (GOx); test: GOx activity assay, glucose oxidase-horseradish peroxidase coupled system with o-dianisidine; format: biochemical; set-up: purchased Sigma Aldrich; settings: for 1/Vo: Lineweaver-Burk;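 on GOx activity: GOx activity followed by o-dianisidine absorbance at 500 nm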

Structure (SMILES): c1ccc(SSc2ccccc2)cc1 [(4)2]
- Normalized Change of RPA (NC) ([1]; 0% Secox): -0,49
- Normalized Change of RPA (NC) ([1]; 5% Secox): -0,50
- NC of RPA (glucose oxidase (GOx) [2]): 39,73
- Emmsion average (glucose oxidase (GOx) [3]; [(4)2] 40 μM): 2487781
- Normalized Fluorescence (glucose oxidase (GOx) [3]; [(4)2] 40 μM): 0.09492
- Emmsion average (glucose oxidase (GOx) [3]; [(4)2] 80 μM): 2153387
- Normalized Fluorescence (glucose oxidase (GOx) [3]; [(4)2] 80 μM): 0.2166
- Emmsion average (glucose oxidase (GOx) [3]; [(4)2] 400 μM): 1756334
- Normalized Fluorescence (glucose oxidase (GOx) [3]; [(4)2] 400 μM): 0.361
- Emmsion average (glucose oxidase (GOx) [3]; [(4)2] 2000 μM): 1449655
- Normalized Fluorescence (glucose oxidase (GOx) [3]; [(4)2] 2000 μM): 0.4726
- Emmsion average (glucose oxidase (GOx) [3]; [(4)2] 4000 μM): 1064446
- Normalized Fluorescence (glucose oxidase (GOx) [3]; [(4)2] 4000 μM): 0.6127
- Emmsion average (glucose oxidase (GOx) [3]; [(4)2] 8000 μM): 516610
- Normalized Fluorescence (glucose oxidase (GOx) [3]; [(4)2] 8000 μM): 0.8121
- Emmsion average (glucose oxidase (GOx) [3]; [(4)2] 16000 μM): 236911
- Normalized Fluorescence (glucose oxidase (GOx) [3]; [(4)2] 16000 μM): 0.9138
- Kd (glucose oxidase (GOx) [3]; apparent dissociation constant, GOx 0.8 µM, Tris pH 7.8, 5% DMSO, 10 °C, read-out: Kd'): 110000 ± 10000 nM
- Normalized Change of RPA (NC) ([4]; 0% Secox): 0,59
- Normalized Change of RPA (NC) ([4]; 5% Secox): 0,53
- GOx Activity (glucose oxidase (GOx) [5]; IC50 data, inhibitor 1.4 nM, glucose 10 mM): 0.07285 min⁻¹
- GOx Activity (glucose oxidase (GOx) [5]; IC50 data, inhibitor 3.5 nM, glucose 10 mM): 0.0762 min⁻¹
- GOx Activity (glucose oxidase (GOx) [5]; IC50 data, inhibitor 7.0 nM, glucose 10 mM): 0.0665 min⁻¹
- GOx Activity (glucose oxidase (GOx) [5]; IC50 data, inhibitor 14.0 nM, glucose 10 mM): 0.0785 min⁻¹
- GOx Activity (glucose oxidase (GOx) [5]; IC50 data, inhibitor 70.0 nM, glucose 10 mM): 0.0871 min⁻¹
- GOx Activity (glucose oxidase (GOx) [5]; IC50 data, inhibitor 140.0 nM, glucose 10 mM): 0.08235 min⁻¹
- GOx Activity (glucose oxidase (GOx) [5]; IC50 data, inhibitor 700.0 nM, glucose 10 mM): 0.0656 min⁻¹
- GOx Activity (glucose oxidase (GOx) [5]; IC50 data, inhibitor 1400.0 nM, glucose 10 mM): 0.0557 min⁻¹
- GOx Activity (glucose oxidase (GOx) [5]; IC50 data, inhibitor 7000.0 nM, glucose 10 mM): 0.0417 min⁻¹
- GOx Activity (glucose oxidase (GOx) [5]; IC50 data, inhibitor 140000.0 nM, glucose 10 mM): 0.0376 min⁻¹
- GOx Activity (glucose oxidase (GOx) [5]; Ki data, inhibitor 7,0·10^-7 M, [Glucose] 0.0002 M): 0.0019 min⁻¹
- GOx Activity (glucose oxidase (GOx) [5]; Ki data, inhibitor 7,0·10^-7 M, [Glucose] 0.0007 M): 0.0067 min⁻¹
- GOx Activity (glucose oxidase (GOx) [5]; Ki data, inhibitor 7,0·10^-7 M, [Glucose] 0.0014 M): 0.01145 min⁻¹
- GOx Activity (glucose oxidase (GOx) [5]; Ki data, inhibitor 7,0·10^-7 M, [Glucose] 0.0028 M): 0.02218 min⁻¹
- GOx Activity (glucose oxidase (GOx) [5]; Ki data, inhibitor 7,0·10^-7 M, [Glucose] 0.004 M): 0.02548 min⁻¹
- GOx Activity (glucose oxidase (GOx) [5]; Ki data, inhibitor 7·10^-8 M, [Glucose] 0.0002 M): 0.0021 min⁻¹
- GOx Activity (glucose oxidase (GOx) [5]; Ki data, inhibitor 7·10^-8 M, [Glucose] 0.0007 M): 0.01063 min⁻¹
- GOx Activity (glucose oxidase (GOx) [5]; Ki data, inhibitor 7·10^-8 M, [Glucose] 0.0014 M): 0.01978 min⁻¹
- GOx Activity (glucose oxidase (GOx) [5]; Ki data, inhibitor 7·10^-8 M, [Glucose] 0.0028 M): 0.03193 min⁻¹
- GOx Activity (glucose oxidase (GOx) [5]; Ki data, inhibitor 7·10^-8 M, [Glucose] 0.004 M): 0.0385 min⁻¹
- GOx Activity (glucose oxidase (GOx) [5]; Ki data, inhibitor 14·10^-7 M, [Glucose] 0.0002 M): 0.00175 min⁻¹
- GOx Activity (glucose oxidase (GOx) [5]; Ki data, inhibitor 14·10^-7 M, [Glucose] 0.0007 M): 0.006225 min⁻¹
- GOx Activity (glucose oxidase (GOx) [5]; Ki data, inhibitor 14·10^-7 M, [Glucose] 0.0014 M): 0.013 min⁻¹
- GOx Activity (glucose oxidase (GOx) [5]; Ki data, inhibitor 14·10^-7 M, [Glucose] 0.0028 M): 0.01805 min⁻¹
- GOx Activity (glucose oxidase (GOx) [5]; Ki data, inhibitor 14·10^-7 M, [Glucose] 0.004 M): 0.02392 min⁻¹
- GOx Activity (glucose oxidase (GOx) [5]; Ki data, inhibitor 14·10^-8 M, [Glucose] 0.0002 M): 0.001875 min⁻¹
- GOx Activity (glucose oxidase (GOx) [5]; Ki data, inhibitor 14·10^-8 M, [Glucose] 0.0007 M): 0.008475 min⁻¹
- GOx Activity (glucose oxidase (GOx) [5]; Ki data, inhibitor 14·10^-8 M, [Glucose] 0.0014 M): 0.0135 min⁻¹
- GOx Activity (glucose oxidase (GOx) [5]; Ki data, inhibitor 14·10^-8 M, [Glucose] 0.0028 M): 0.0304 min⁻¹
- GOx Activity (glucose oxidase (GOx) [5]; Ki data, inhibitor 14·10^-8 M, [Glucose] 0.004 M): 0.0395 min⁻¹
- 1/Vo (glucose oxidase (GOx) [5]; inhibitor 0,7 µM, 1/[glucose] 250 M-1): 41.8673 min
- 1/Vo (glucose oxidase (GOx) [5]; inhibitor 0,7 µM, 1/[glucose] 357 M-1): 59.4498 min
- 1/Vo (glucose oxidase (GOx) [5]; inhibitor 0,7 µM, 1/[glucose] 714 M-1): 110.461 min
- 1/Vo (glucose oxidase (GOx) [5]; inhibitor 0,7 µM, 1/[glucose] 1430 M-1): 185.984 min
- 1/Vo (glucose oxidase (GOx) [5]; inhibitor 0,7 µM, 1/[glucose] 5000 M-1): 603.288 min
- 1/Vo (glucose oxidase (GOx) [5]; inhibitor 1,4 µM, 1/[glucose] 250 M-1): 56.7644 min
- 1/Vo (glucose oxidase (GOx) [5]; inhibitor 1,4 µM, 1/[glucose] 357 M-1): 75.4986 min
- 1/Vo (glucose oxidase (GOx) [5]; inhibitor 1,4 µM, 1/[glucose] 714 M-1): 81.9727 min
- 1/Vo (glucose oxidase (GOx) [5]; inhibitor 1,4 µM, 1/[glucose] 1430 M-1): 178.284 min
- 1/Vo (glucose oxidase (GOx) [5]; inhibitor 1,4 µM, 1/[glucose] 5000 M-1): 687.292 min
- Inhibitor Type (glucose oxidase (GOx) [5]; Lineweaver–Burk plots): non-competitive
- IC50 (glucose oxidase (GOx) [5]; [Glucose] 10 mM, 37 °C, sodium acetate buffer pH 5.1): 1800 ± 100 nM
- Ki (glucose oxidase (GOx) [5]; non-competitive inhibition model, 37 °C, sodium acetate buffer pH 5.1): 1700 ± 200 nM
